Data from patent publication US20260297080A1, “BICYCLIC COMPOUNDS AS CDK INHIBITORS” (BeOne Medicines I GmbH, priority 2022, published 2026).

Columns and labels:
CDK1/Cyclin B1 = CDK1/Cyclin B1 (Homo sapiens, UniProt P06493); test: CDK1/Cyclin B1 Biochemical Assay (TR-FRET), 0.015 mM ATP; conditions: 0.15 μM Rb (Ser780)-biotin substrate, pH7.0, 60 min preincubation, 120 min reaction, room temperature
Method in brief: (§1)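 Phosphorylation of a biotin-tagged Rb Ser780 peptide (0.15 μM) is measured by time-resolved FRET between a europium-labelled phospho-specific antibody and streptavidin-XL665. Compound (0–10 μM) sits with enzyme 60 min first; the kinase reaction then proceeds 120 min at room temperature, pH 7.0.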

CDK2/Cyclin E1 = CDK2/Cyclin E1 (Homo sapiens, UniProt P24941); test: CDK2/Cyclin E1 Biochemical Assay (TR-FRET), 0.060 mM ATP; conditions: 0.15 μM Rb (Ser780)-biotin substrate, pH7.0, 60 min preincubation, 120 min reaction, room temperature
Method in brief: as §1

Sequence of CDK1/Cyclin B1 (P06493 whole entry): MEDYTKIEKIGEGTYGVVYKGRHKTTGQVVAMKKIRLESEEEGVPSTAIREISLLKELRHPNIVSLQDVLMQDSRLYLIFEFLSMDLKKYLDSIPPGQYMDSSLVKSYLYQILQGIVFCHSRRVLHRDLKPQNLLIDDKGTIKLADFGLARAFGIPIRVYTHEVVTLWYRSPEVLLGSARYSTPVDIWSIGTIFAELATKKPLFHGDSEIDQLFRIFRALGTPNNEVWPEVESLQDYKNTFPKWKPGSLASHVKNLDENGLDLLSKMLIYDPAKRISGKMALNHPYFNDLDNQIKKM
Sequence of CDK1/Cyclin B1 (P14635 whole entry partner): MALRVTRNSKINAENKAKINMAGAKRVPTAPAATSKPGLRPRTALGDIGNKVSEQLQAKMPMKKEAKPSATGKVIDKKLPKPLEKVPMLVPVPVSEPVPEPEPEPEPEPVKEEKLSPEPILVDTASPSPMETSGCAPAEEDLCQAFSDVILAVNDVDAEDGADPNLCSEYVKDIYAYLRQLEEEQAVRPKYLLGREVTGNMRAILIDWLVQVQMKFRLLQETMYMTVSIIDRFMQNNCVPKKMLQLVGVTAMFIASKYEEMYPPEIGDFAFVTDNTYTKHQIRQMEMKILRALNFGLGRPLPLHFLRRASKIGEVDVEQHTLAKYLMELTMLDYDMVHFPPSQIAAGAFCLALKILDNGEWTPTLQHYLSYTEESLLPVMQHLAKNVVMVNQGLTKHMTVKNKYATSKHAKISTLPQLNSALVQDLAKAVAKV

| SMILES | IC50 (CDK1/Cyclin B1) | IC50 (CDK2/Cyclin E1) |
| --- | --- | --- |
| CC(C)NC(=O)O[C@H]1CC[C@@H](c2cc(Nc3ccc4c(c3)S(=O)(=O)NC4C)[nH]n2)C1 (single isomer, unassigned) [Example 5c, cis-3-(5-((3-methyl-1,1-dioxido-2,3-dihydrobenzo[d]isothiazol-6-yl)amino)-1H-pyrazol-3-yl)cyclopentyl isopropylcarbamate] | 95 nM | 4.2 nM |
| CCCNC(=O)O[C@H]1CC[C@@H](c2cc(Nc3ccc4c(c3F)C(C)(C)NS4(=O)=O)n[nH]2)C1 (relative stereo) [Example 58, cis-3-(3-((4-fluoro-3,3-dimethyl-1,1-dioxido-2,3-dihydrobenzo[d]isothiazol-5-yl)amino)-1H-pyrazol-5-yl)cyclopentyl propylcarbamate] | 694 nM | 93 nM |
| CC(C)NC(=O)O[C@H]1CC[C@@H](c2cc(Nc3cc4c(cc3F)NS(=O)(=O)C4)n[nH]2)C1 (single isomer, unassigned) [Example 292a, cis-3-(3-((6-fluoro-2,2-dioxido-1,3-dihydrobenzo[c]isothiazol-5-yl)amino)-1H-pyrazol-5-yl)cyclopentyl isopropylcarbamate] | 1410 nM | 13 nM |
| CC(C)NC(=O)O[C@H]1CC[C@@H](c2cc(Nc3ccc4c(c3F)CN(C3CCNC3=O)S4(=O)=O)n[nH]2)C1 (relative stereo) [Example 79, cis-3-(3-((4-fluoro-1,1-dioxido-2-(2-oxopyrrolidin-3-yl)-2,3-dihydrobenzo[d]isothiazol-5-yl)amino)-1H-pyrazol-5-yl)cyclopentyl isopropylcarbamate] | 638 nM | 8.3 nM |
| CN1c2ccc(Nc3cc([C@@H]4CC[C@H](OC(=O)NC5CCC5)C4)[nH]n3)cc2CS1(=O)=O (single isomer, unassigned) [Example 227a, cis-3-(3-((1-methyl-2,2-dioxido-1,3-dihydrobenzo[c]isothiazol-5-yl)amino)-1H-pyrazol-5-yl)cyclopentyl cyclobutylcarbamate] | 156 nM | 3.5 nM |
| CN1c2ccc(Nc3cc([C@@H]4CC[C@H](OC(=O)N[C@H]5CC[C@@H](O)CC5)C4)[nH]n3)cc2CS1(=O)=O (relative stereo) [Example 341, cis-3-(3-((1-methyl-2,2-dioxido-1,3-dihydrobenzo[c]isothiazol-5-yl)amino)-1H-pyrazol-5-yl)cyclopentyl((1s,4s)-4-hydroxycyclohexyl)carbamate] | 77 nM | 4.7 nM |
| CN1c2ccc(Nc3cc([C@@H]4CC[C@H](OC(=O)NC5(C)CCC5)C4)[nH]n3)cc2CS1(=O)=O (relative stereo) [Example 233, cis-3-(3-((1-methyl-2,2-dioxido-1,3-dihydrobenzo[c]isothiazol-5-yl)amino)-1H-pyrazol-5-yl)cyclopentyl(1-methylcyclobutyl)carbamate] | 10 nM | 1.3 nM |
| CC1(NC(=O)O[C@H]2CC[C@@H](c3cc(Nc4ccc5c(c4F)CNS5(=O)=O)n[nH]3)C2)CCOC1 (single isomer, unassigned) [Example 162a, cis-3-(3-((4-fluoro-1,1-dioxido-2,3-dihydrobenzo[d]isothiazol-5-yl)amino)-1H-pyrazol-5-yl)cyclopentyl(3-methyltetrahydrofuran-3-yl)carbamate] | 456 nM | 3.4 nM |
| COCCN1c2ccc(Nc3cc([C@@H]4CC[C@H](OC(=O)NC(C)C)C4)[nH]n3)c(F)c2CS1(=O)=O (relative stereo) [Example 252, cis-3-(3-((4-fluoro-1-(2-methoxyethyl)-2,2-dioxido-1,3-dihydrobenzo[c]isothiazol-5-yl)cyclopentyl isopropylcarbamate] | 79 nM | 3.8 nM |
| Cc1c(Nc2cc([C@@H]3CC[C@H](OC(=O)NC(C)C)C3)[nH]n2)ccc2c1CS(=O)(=O)N2 (relative stereo) [Example 240, cis-3-(3-((4-methyl-2,2-dioxido-1,3-dihydrobenzo[c]isothiazol-5-yl)amino)-1H-pyrazol-5-yl)cyclopentyl isopropylcarbamate] | 28 nM | 3 nM |
| COCC1(NC(=O)O[C@H]2CC[C@@H](c3cc(Nc4ccc5c(c4F)CNS5(=O)=O)n[nH]3)C2)CC1 (single isomer, unassigned) [Example 158b, cis-3-(3-((4-fluoro-1,1-dioxido-2,3-dihydrobenzo[d]isothiazol-5-yl)amino)-1H-pyrazol-5-yl)cyclopentyl(1-(methoxymethyl)cyclopropyl)carbamate] | 248 nM | 3.3 nM |
| O=C(NC1CCC(O)CC1)O[C@H]1CC[C@@H](c2cc(Nc3ccc4c(c3F)CNS4(=O)=O)n[nH]2)C1 (single isomer, unassigned) [Example 143, cis-3-(3-((4-fluoro-1,1-dioxido-2,3-dihydrobenzo[d]isothiazol-5-yl)amino)-1H-pyrazol-5-yl)cyclopentyl(4-hydroxycyclohexyl)carbamate] | 242 nM | 4.9 nM |
| CCCNC(=O)O[C@H]1CC[C@@H](c2cc(Nc3ccc4c(c3F)S(=O)(=O)NC4)n[nH]2)C1 (single isomer, unassigned) [Example 189b, cis-3-(3-((7-fluoro-1,1-dioxido-2,3-dihydrobenzo[d]isothiazol-6-yl)amino)-1H-pyrazol-5-yl)cyclopentyl propylcarbamate] | 41 nM | 2.7 nM |
| CC1(NC(=O)O[C@H]2CC[C@@H](c3cc(Nc4ccc5c(c4F)CS(=O)(=O)N5C4COC4)n[nH]3)C2)CC1 (relative stereo) [Example 262, cis-3-(3-((4-fluoro-1-(oxetan-3-yl)-2,2-dioxido-1,3-dihydrobenzo[c]isothiazol-5-yl)amino)-1H-pyrazol-5-yl)cyclopentyl(1-methylcyclopropyl)carbamate] | 33 nM | 1.3 nM |
| COCC(C)(C)NC(=O)O[C@H]1CC[C@@H](c2cc(Nc3ccc4c(c3F)CS(=O)(=O)N4C3CC3)n[nH]2)C1 (relative stereo) [Example 401, cis-3-(3-((1-cyclopropyl-4-fluoro-2,2-dioxido-1,3-dihydrobenzo[c]isothiazol-5-yl)amino)-1H-pyrazol-5-yl)cyclopentyl(1-methoxy-2-methylpropan-2-yl)carbamate] | 105 nM | 2.1 nM |
| O=C(NCCC(F)(F)F)O[C@H]1CC[C@@H](c2cc(Nc3cc4c(cc3F)S(=O)(=O)NC4)n[nH]2)C1 (single isomer, unassigned) [Example 419b] | 78 nM | 1.8 nM |
| CC1(C)CCN1C(=O)O[C@H]1CC[C@@H](c2cc(Nc3ccc4c(c3F)CNS4(=O)=O)n[nH]2)C1 (relative stereo) [Example 155, cis-3-(3-((4-fluoro-1,1-dioxido-2,3-dihydrobenzo[d]isothiazol-5-yl)amino)-1H-pyrazol-5-yl)cyclopentyl 2,2-dimethylazetidine-1-carboxylate] | 13 nM | 1.3 nM |
| CN1c2ccc(Nc3cc([C@@H]4CC[C@H](OC(=O)NC5(CO)CCC5)C4)[nH]n3)cc2CS1(=O)=O (relative stereo) [Example 386, cis-3-(3-((1-methyl-2,2-dioxido-1,3-dihydrobenzo[c]isothiazol-5-yl)amino)-1H-pyrazol-5-yl)cyclopentyl(1-(hydroxymethyl)cyclobutyl)carbamate] | 28 nM | 1 nM |
| CCCNC(=O)O[C@H]1CC[C@@H](c2cc(Nc3cc(CO)c4c(c3F)CNS4(=O)=O)n[nH]2)C1 (relative stereo) [Example 366, cis-3-(3-((4-fluoro-7-(hydroxymethyl)-1,1-dioxido-2,3-dihydrobenzo[d]isothiazol-5-yl)amino)-1H-pyrazol-5-yl)cyclopentyl propylcarbamate] | > 10000 nM | > 10000 nM |
| CC(C)NC(=O)O[C@H]1CC[C@@H](c2cc(Nc3cc(F)c4c(c3)CS(=O)(=O)N4C3CC3)n[nH]2)C1 (relative stereo) [Example 288, cis-3-(3-((1-cyclopropyl-7-fluoro-2,2-dioxido-1,3-dihydrobenzo[c]isothiazol-5-yl)amino)-1H-pyrazol-5-yl)cyclopentyl isopropylcarbamate] | 152 nM | 5.5 nM |
| COCCN1Cc2ccc(Nc3cc([C@@H]4CC[C@H](OC(=O)NC(C)C)C4)[nH]n3)c(F)c2S1(=O)=O (relative stereo) [Example 191, cis-3-(3-((7-fluoro-2-(2-methoxyethyl)-1,1-dioxido-2,3-dihydrobenzo[d]isothiazol-6-yl)amino)-1H-pyrazol-5-yl)cyclopentyl isopropylcarbamate] | 191 nM | 9.3 nM |
| CCCNC(=O)O[C@H]1CC[C@@H](c2cc(Nc3ccc4c(c3)CS(=O)(=O)N4C)n[nH]2)C1 (relative stereo) [Example 221, cis-3-(3-((1-methyl-2,2-dioxido-1,3-dihydrobenzo[c]isothiazol-5-yl)amino)-1H-pyrazol-5-yl)cyclopentyl propylcarbamate] | 49 nM | 8.6 nM |
| CC(=O)N1CC(N2Cc3c(ccc(Nc4cc([C@@H]5CC[C@H](OC(=O)NC(C)C)C5)[nH]n4)c3F)S2(=O)=O)C1 (relative stereo) [Example 90, cis-3-(3-((2-(1-acetylazetidin-3-yl)-4-fluoro-1,1-dioxido-2,3-dihydrobenzo[d]isothiazol-5-yl)amino)-1H-pyrazol-5-yl)cyclopentyl isopropylcarbamate] | 762 nM | 20 nM |
| COc1c(Nc2cc([C@@H]3CC[C@H](OC(=O)NC(C)C)C3)[nH]n2)ccc2c1S(=O)(=O)NC2 (relative stereo) [Example 180, cis-3-(3-((7-methoxy-1,1-dioxido-2,3-dihydrobenzo[d]isothiazol-6-yl)amino)-1H-pyrazol-5-yl)cyclopentyl isopropylcarbamate] | 102 nM | 2.9 nM |
